According to publication PMC6627553, “Cardiac Rhythm and Molecular Docking Studies of Ion Channel Ligands with Cardiotoxicity in Zebrafish” (Cells, 2019):
“Also recorded” adds a separate entry of the source. Where a name gives a salt, the structure may show the parent alone. Read-outs that look alike come from different tables or passages of the source.

How the values were obtained:
[1] = tested on: zebrafish embryos aged 72 hpf; assay: Chronology method: heart beat recorded at 5 min intervals over 30 min; conditions: 10 μM; for Cardiac phenotype by time chronology method: 10 sec recordings at 5 min intervals over 30 min, methylcellulose mounted; for Atrium and ventricle rhythmicity pattern after 30 min incubation: compared to control
Method: (§1) Stock concentrations for each compound in the library are 10 mM with 100 µL volume. The compounds are diluted with distilled water to make working solutions at 10 µM. For drug treatment, 20 µM of the compound stock was dropped onto the fish mounted with the same volume (around 50 µL) of 3% methylcellulose for a final working concentration of 10 µM. The heart beats from three zebrafish larvae were used for the first round of screening. […] The heart beats from five zebrafish larvae for each compound were recorded for 10 sec at 5 min intervals over a period of 30 min.
(§2) After drug administration, we video recorded the heart beat for 10 sec at 5 min intervals, over a period of 30 min.

[2] = tested on: zebrafish embryos aged 72 hpf; assay: End-point screen of ion channel ligand library for cardiac rhythm (ImageJ-based); conditions: 10 μM, 30 min incubation
Method: Seventy-two hpf larvae were used for this study.
The compounds are diluted with distilled water to make working solutions at 10 µM. For drug treatment, 20 µM of the compound stock was dropped onto the fish mounted with the same volume (around 50 µL) of 3% methylcellulose for a final working concentration of 10 µM. The heart beats from three zebrafish larvae were used for the first round of screening. […] The heart beats from five zebrafish larvae for each compound were recorded for 10 sec at 5 min intervals over a period of 30 min.
For the cardiac rhythm assay, we mounted zebrafish embryos aged at 72 hpf with 3% methylcellulose to reduce their movement, and later applied chemicals from an ion channel ligand library (containing 70 compounds) at 10 μM to measure the changes in cardiac rhythm according to our previous ImageJ-based method [25]. In order to prevent the potential side effects of anesthesia on heart rate or rhythmicity, we used methylcellulose to mount zebrafish larvae for videotaping.
Initially, we used an image-based end-point method to screen the potential effects of an ion channel ligand library on heart beat rhythm alterations. […] In order to screen a potential compound with high cardiotoxicity at a low dose, we performed chemical screening at 10 μM as a starting point. […] A heartbeat that exceeds these ranges is considered abnormal.

[3] = tested on: zebrafish embryos aged 72 hpf; assay: Dose response experiment for lowest effective dose (LOED), time chronology method; conditions: 1 µM and 5 µM
Method: Three different doses, 1, 5 and 10 μM, of the tested compounds were given to zebrafish embryos aged 72 hpf, and the heart beat rate and rhythmicity were recorded for comparison by the time chronology method.
(§3) Five zebrafish larvae aged at 72 h post-fertilization (hpf) were used in this assay.

rats = conditions: cited from earlier work
[4] = tested on: zebrafish embryos aged 72 hpf; conditions: in vivo
Method: as §1, §2

hERG channel = conditions: cited from earlier work
cardiac K+ channels = conditions: cited from earlier work
[5] = tested on: zebrafish larvae aged 72 hpf; assay: Washout experiment for heart rate and rhythmicity; conditions: washout for 30 min and 1 h
Method: as §3

SMILES: COC(=O)c1c(C)[nH]c(C)c1C(=O)c1ccccc1Cc1ccccc1 [compound 1346, FPL-64176]
- Cardiac phenotype by time chronology method [1]: arrhythmia
- Atrium and ventricle rhythmicity pattern after 30 min incubation [1]: arrhythmic beating
- Heart rhythm phenotype in first step screening (end-point screen) [2]: ventricular fibrillation or total heart stop; also recorded: irregular heart rhythmicity
- Heart rhythm phenotype in first step screening (end-point screen) ([2]; listed as FPL-64176): heart completely stopped
- Effect on cardiac rhythmicity at low concentration [3]: did not change
- Effect on heart beat rate at low concentration [3]: did not change the heart beat rate

SMILES: O=C1NCN(c2ccccc2)C12CCN(CCCC(c1ccc(F)cc1)c1ccc(F)cc1)CC2 [compound 1377, Fluspirilene]
- Cardiac phenotype by time chronology method [1]: arrhythmia from 5 min onwards
- Cardiac phenotype by time chronology method ([1]; listed as fluspirilene): arrhythmia occurred from 5 min onwards and became more severe over time
- Atrium and ventricle rhythmicity pattern after 30 min incubation [1]: arrhythmic, with one peak of the ventricle being followed by two of the atrium
- Heart rhythm phenotype in first step screening (end-point screen) [2]: ventricular fibrillation or total heart stop; also recorded: irregular heart rhythmicity; also recorded: total heart stop
- Heart rhythm phenotype in first step screening (end-point screen) ([2]; listed as fluspirilene): heart completely stopped

SMILES: Fc1ccc(C(c2ccc(F)cc2)N2CCN(C/C=C/c3ccccc3)CC2)cc1 [compound 1345, Flunarizine hydrochloride]
- Cardiac phenotype by time chronology method [1]: slowing of heart rate as well as arrhythmia after incubation for 25 and 30 min; also recorded: slowing of the heart as well as arrhythmia after incubation for 25 and 30 min
- Atrium and ventricle rhythmicity pattern after 30 min incubation [1]: arryhtmia was not shown in the pattern; however, the peak was less compact compared to the control
- Heart rhythm phenotype in first step screening (end-point screen) [2]: slight slowing of the heartbeat (bradycardia); also recorded: irregular heart rhythmicity

SMILES: CNc1ccc2oc(C[C@H]3O[C@@]4(CC[C@H]3C)O[C@H]([C@H](C)C(=O)c3ccc[nH]3)[C@H](C)C[C@H]4C)nc2c1C(=O)O [compound 1333, Antibiotic A-23187]
- Increase of heart beat (rats): up to 50%
- Atrium and ventricle rhythmicity pattern after 30 min incubation [1]: 1:1 rhythm, but the peak was more compact
- Heart rhythm phenotype in first step screening (end-point screen) [2]: ventricular fibrillation or total heart stop; also recorded: irregular heart rhythmicity
- Heart rhythm phenotype in first step screening (end-point screen) ([2]; listed as Antibiotic A-23187): ventricular fibrillation

SMILES: O=c1[nH]c2ccccc2n1C1CCN(CCCC(c2ccc(F)cc2)c2ccc(F)cc2)CC1 [compound 1360, Pimozide]
- Cardiac phenotype by time chronology method [4]: atrioventricular block from 10 min onwards
- Concentration giving significant inhibition of hERG channel currents (hERG channel; as low as): 3 nM
- IC50 (hERG channel; read-out: IC50 of hERG channel currents): 0.018 µM
- Reported cardiac adverse effect (cardiac K+ channels): acquired long QT syndrome and ventricle arrhythmia
- Reversibility of cardiotoxicity effect (cardiac K+ channels): poorly reversible
- Restoration of heart rate after washout [5]: could not be fully restored, even after 1 h of washout treatment
- Reversal of arrhythmic effect after washout [5]: unable to fully reverse the arrhythmic effect
- Cardiac phenotype by time chronology method [1]: atrioventricular block occurred, subsequently becoming more severe over time
- Atrium and ventricle rhythmicity pattern after 30 min incubation [1]: arrhythmic, with one peak in the ventricle being followed by two in the atrium
- Heart rhythm phenotype in first step screening (end-point screen) [2]: ventricular fibrillation or total heart stop; also recorded: irregular heart rhythmicity
